PMC12091851, “Replacing a Cereblon Ligand by a DDB1 and CUL4 Associated Factor 11 (DCAF11) Recruiter Converts a Selective Histone Deacetylase 6 PROTAC into a Pan‐Degrader” (Chemmedchem, 2025)
Like-named read-outs stand apart in the source and are kept apart here.

What was measured:
MM.1S cells [1] = assay: CellTiter-Glo cell viability assay; format: cell-based, human; conditions: 72 h; for EC50: Homo sapiens, MM1.S
Method: For this purpose, the dilution series were prepared in 200-fold concentration in DMSO and further diluted to 10-fold concentration in medium. The final DMSO concentration was 0.5%. The toxicity of compounds was determined after 72 h using the CellTiter-Glo 2.0 Cell Viability Assay (Promega, Madison, WI, USA, #G9242) according to the manufacturer´s protocol. Subsequently, the luminescence was measured using a Tecan Spark (Tecan Group AG, Maennedorf, Swiss) and the half maximal effective concentration (EC50) was determined by plotting dose response curves and nonlinear regression with GraphPad Prism (GraphPad Software, San Diego, CA, USA). […] Cellular HDAC Inhibition Assay […] with minor changes. […] The DMSO-stock solutions were used to perform a serial dilution in DMSO. […] 10 µL of the substrate solution was added and incubated for 3 h under cell culture conditions. […] S8

HDAC1 = HDAC1 (Homo sapiens, UniProt Q13547); assay: Simple Western immunoassay, HDAC1 levels in MM.1S cell lysates; format: cell-based; set-up: endogenous in cells; host or cells: MM.1S; conditions: MM.1S cells, 10 μM, 24 h
Sequence of HDAC1 (Q13547 whole entry): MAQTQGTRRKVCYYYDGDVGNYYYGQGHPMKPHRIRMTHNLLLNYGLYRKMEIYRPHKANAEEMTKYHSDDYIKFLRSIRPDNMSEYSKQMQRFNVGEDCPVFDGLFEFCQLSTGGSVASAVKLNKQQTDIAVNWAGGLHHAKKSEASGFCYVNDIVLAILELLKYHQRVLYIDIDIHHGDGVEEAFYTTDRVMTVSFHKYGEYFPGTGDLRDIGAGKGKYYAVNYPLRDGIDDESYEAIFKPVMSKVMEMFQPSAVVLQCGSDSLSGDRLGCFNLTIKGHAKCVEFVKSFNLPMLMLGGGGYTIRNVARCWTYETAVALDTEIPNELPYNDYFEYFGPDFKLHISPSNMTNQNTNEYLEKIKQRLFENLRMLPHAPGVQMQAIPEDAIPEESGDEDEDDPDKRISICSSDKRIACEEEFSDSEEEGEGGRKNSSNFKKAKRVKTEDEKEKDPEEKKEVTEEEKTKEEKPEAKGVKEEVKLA
Method: Figure 3 Initial degradation screening of HDAC1 and 6 by DCAF11‐recruiting PROTACs by Simple Western™ immunoassay analysis of MM.1S cell lysates. MM.1S cells were treated with the indicated compound (10 μM) or vehicle (DMSO) for 24 h. […] Bottom: Representative images from a total of n=3 biological replicates, labeled with spacer type; w/o: without spacer.
2. Biological Experiments
No unexpected or unusually high safety hazards were encountered.
The human multiple myeloma cell line MM.1S (CRL-2974) was obtained from American Type Culture Collection (ATCC, Manassas, VA, USA). The semi-adherent cells were cultivated in RPMI 1640 medium (Catalog#21875-034, Gibco, ThermoFisher Scientific Inc., Waltham, MA, USA) supplemented with 10% FBS (PAN Biotech GmbH; Aidenbach, Germany), 100 IU/mL penicil lin, 0.1 mg/mL streptomycin (PAN Biotech GmbH) and 1 mM sodium pyruvate (ThermoFisher Scientific Inc.). […]
(PAN Biotech GmbH). All cells were cultured at 37 °C in a 5% CO2 atmosphere. Incubation times, as part of assay protocols, were performed under these conditions as well. The semi-adherent MM.1S were detached mechanically by using a cell scraper and the adhered […] were trypsinased by trypsin/EDTA (0.05%/0.02% in DPBS, PAN Biotech GmbH) whereas the U-87MG were detached by […]
2.2. Simple Western™ Immunoassay
For the cell lysates, MM.1S (0.5 × 10^6 cells/mL) or U-87MG (0.18 × 10^6 cells/mL) cells were seeded and incubated with the indicated concentration of compound or vehicle (DMSO) for the given time. The adherent cells were cultured for 24 h under cell culture conditions for attachment before treatment. Cell lysis was performed with Cell Extraction Buffer (10 mM Tris, pH 7.4, 100 mM NaCl, 1 mM EDTA, […]
SDS, 0.5% deoxycholate; Catalog# FNN0011, Thermo Fisher Scientific Inc., Waltham, MA, USA) with addition of Halt Protease Inhibitor Cocktail (100×) (Catalog# 78429, Life Technologies GmbH, Carlsbad, CA, USA) and phenylmethanesulfonyl fluoride (Catalog# 10837091001, Sigma-Aldrich, St.
Louis, MO, USA) according to manufacturer´s instructions. Protein content was determined by Pierce™ BCA Protein Assay Kit (Catalog# 23225, Thermo Fisher Scientific Inc.) according to manufacturer´s guidelines. Cell lysates were diluted to a final concentration of 1 mg/mL and denatured according to manufacturer’s guidelines. Anti-HDAC1 (Catalog# 5356S, Cell Signaling Technology, Denver, MA, USA), anti-HDAC6 (Catalog#7558S, Cell Signaling Technology) and anti-GAPDH (Catalog# 2118S, […]
Fluorescence Separation 8x25 Capillary Cartridges (Catalog# SM-FL004-1, Protein Simple, Bio-Techne, Minneapolis, MN, USA) were used for separation and the Anti-Mouse Detection Module (Catalog# DM-002, Protein Simple) was used for detection with addition of 20x Anti-Rabbit HRP […]
Conjugate (Catalog# 043-426, Protein Simple) according to manufacturer´s instructions. The assay was performed with the Jess Simple Western System (catalog# 004-650, Protein Simple), according to manufacturer´s settings. Evaluation and quantification was performed with the compass software (6.2.0, Protein Simple). GraphPad Prism (GraphPad Software, San Diego, CA, USA) was used for normalization, statistical analysis and bar graph creation. Significance testing was performed with a one-way analysis of variance (ANOVA). […]
of each mean compared to a reference mean value. […]
AMC (Catalog# 233691-67-3, BLD pharma) was prepared with and without IGEPAL CA-630 (0.5%, Catalog# J61055, Alfa Aesar). 10 µL of the substrate solution was added and incubated for 3 h under cell culture conditions. The reaction was stopped with 100 µL of stop solution (50 mM Tris-HCl, […]
Trypsin) and incubated for 1.5 h under cell culture conditions. The fluorescence signal was measured by a FLUOstar OPTIMA microplate reader (BMG labtech, Ortenburg, Germany) at excitation of λ = 355 nm and emission of λ = 460 nm. All Compounds were tested in two independent experiments in duplicates and IC50 was determined by nonlinear regression with GraphPad Prim.

MDA-MB-231 cells = assay: Clonogenic growth assay; format: cell-based, human; conditions: 10 μM for 48 h, nine days of growth
Method: Figure 9 Clonogenic growth assay of DCAF11‐recruiting PROTACs. MDA‐MB‐231 cells were treated with 10 μM of the respective compound or vehicle (DMSO) for 48 hours. (A) Representative images of crystal violet stained colonies after nine days of growth. (B) Quantification of counted colonies, presented as mean ± standard deviation of three biological replicates, each performed in triplicates. Significance of quantification compared to vehicle: ns=p≥0.05; **=p≤0.01 and ***=p≤0.001. […]
Subsequently, cells were harvested and
plated in 6-well plates at a density of 750 cells per well in triplicates. The cell culture medium was
changed after five days. Nine days after plating, the colonies were carefully washed with 500 µL DPBS
and stained with 500 µL crystal violet solution (0.5% in methanol). After 30 minutes of incubation at
room temperature, the wells were gently rinsed with deionized water. After counting the formed
colonies, GraphPad Prism (GraphPad Software) was used for bar graph creation. Significance testing
was performed with a one-way analysis of variance (ANOVA). Dunnett’s post-hoc test was employed
to obtain significance levels of each mean compared to a reference mean value.

MM.1S cells [2] = assay: Cell cycle analysis by PI staining and flow cytometry; format: cell-based, human; conditions: 10 μM, 48 h
Method: GraphPad Prism (GraphPad Software). […]
Biotech), resuspended in 1 mL EtOH/D PBS (7/3 v/v), and fixed for 30 min at 4 °C. The samples were rehydrated with DPBS and treated with 5 µg /mL RNAse ( Catalog# EN0531 , ThermoFisher Scientific Inc.) for 15 min at room temperature. The staining was performed with 3 µM propidium iodide (in DPBS) for 15 min at room temperature and analyzed by flow cytometry ( Guava easyCyteTM, Luminex, […]
Lakes, NJ, USA), using the Watson Pragmatic algorithm.[6] GraphPad Prism (GraphPad Software) was used for normalization, statistical analysis, and bar graph creation. Significance testing was performed with a one-way analysis of variance (ANOVA). Dunnett’s post-hoc test was employed to obtain […]
Final DMSO concentration was 0.1%.
Staining was performed with
Fluorescence was measured by flow cytometry (Guava® easyCyteTM, Luminex, Austin, Texas). GraphPad Prism (GraphPad Software) was used for normalization, statistical analysis, and bar graph creation. Significance testing was performed with a one-way analysis of variance (ANOVA).
Subsequently, cells were harvested and […]
After 30 minutes of incubation at […]
Dunnett’s post-hoc test was employed

[3] = MM.1S cells, n.e.: no effect (≤25% effect up to 50 μM), read-out: EC50 antiproliferative activity
[4] = MM.1S cells, n.e.: no effect (≤25% effect up to 50 μM)

Row | SMILES | EC50 (MM.1S cells [1]; [3]) | other results
1 | O=C(CCCCCCNC(=O)c1ccc(NC(=O)c2ccc(N(C(=O)CCl)C(C(=O)NCc3ccccc3)c3ccc(Cl)c(Cl)c3)cc2)cc1)NO (stereo not shown) [Compound 1a] | 34 ± 6 µM | EC50 antiproliferative activity (MM.1S cells [1]; [4]): diminished antiproliferative activity
2 | O=C(CCCCCCNC(=O)c1ccc(NC(=O)[C@H]2CC[C@H](CN(C(=O)CCl)C(C(=O)NCc3ccccc3)c3ccc(Cl)c(Cl)c3)CC2)cc1)NO (stereo partly shown) [Compound 1b] | 18 ± 3 µM | EC50 antiproliferative activity (MM.1S cells [1]; [4]): diminished antiproliferative activity
3 | O=C(CCCCCCNC(=O)c1ccc(NC(=O)CCOCCOCCN(C(=O)CCl)C(C(=O)NCc2ccccc2)c2ccc(Cl)c(Cl)c2)cc1)NO (stereo not shown) [Compound 1c] | 6.2 ± 0.7 µM | 
4 | O=C(CCCCCCNC(=O)c1ccc(NC(=O)CCOCCOCCOCCN(C(=O)CCl)C(C(=O)NCc2ccccc2)c2ccc(Cl)c(Cl)c2)cc1)NO (stereo not shown) [Compound 1d] | 6.9 ± 0.6 µM | 
5 | O=C(CCCCCCNC(=O)c1ccc(NC(=O)CCOCCOCCOCCOCCN(C(=O)CCl)C(C(=O)NCc2ccccc2)c2ccc(Cl)c(Cl)c2)cc1)NO (stereo not shown) [Compound 1e] | 7.3 ± 0.5 µM | reduction of HDAC1 levels (HDAC1): 51%
6 | O=C(CCCCCCNC(=O)c1ccc(NC(=O)CN(C(=O)CCl)C(C(=O)NCc2ccccc2)c2ccc(Cl)c(Cl)c2)cc1)NO (stereo not shown) [Compound 1f] | 19 ± 3 µM | 
7 | O=C(CCCCCCNC(=O)c1ccc(NC(=O)CCCN(C(=O)CCl)C(C(=O)NCc2ccccc2)c2ccc(Cl)c(Cl)c2)cc1)NO (stereo not shown) [Compound 1g] | 16 ± 2 µM | 
8 | O=C(CCCCCCNC(=O)c1ccc(NC(=O)CCCCCN(C(=O)CCl)C(C(=O)NCc2ccccc2)c2ccc(Cl)c(Cl)c2)cc1)NO (stereo not shown) [Compound 1h] | 18 ± 7 µM | reduction of HDAC1 levels (HDAC1): did not reduce HDAC1 levels
9 | O=C(CCCCCCNC(=O)c1ccc(NC(=O)CCCCCCCN(C(=O)CCl)C(C(=O)NCc2ccccc2)c2ccc(Cl)c(Cl)c2)cc1)NO (stereo not shown) [Compound 1i] | 12 ± 2 µM | 
10 | O=C(CCCCCCNC(=O)c1cnc(N(c2ccccc2)c2ccccc2)nc1)NO [Ricolinostat, ricolinostat, reference compound] |  | EC50 (MM.1S cells [1]; read-out: EC50 MM.1S): 3 ± 0.6 µM; reduction of colonies (clonogenic growth) (MDA-MB-231 cells): less pronounced and not significant; effect on cell cycle phases (MM.1S cells [2]): stronger effects on the different phases of the cell cycle
